From patent publication US12275684B2, “Methods for making and using endoxifen” (Atossa Therapeutics, Inc., priority 2017, dated 2025)
Like-named read-outs stand apart in the source and are kept apart here. Each block holds one molecule with its values, some of them ahead of it.

Legend:
[1] = cited from earlier work; for predicted t90 for 10% conversion to (E)-endoxifen: solid state
[2] = Placebo controlled, dose escalation pharmacokinetic study of oral (Z)-Endoxifen capsules (serum endoxifen; incl. accumulation ratios and dose linearity); type: in vivo, human
Source text: An objective of the study was to assess the safety and tolerability of oral (Z)-Endoxifen when administered […] orally as a capsule to healthy female volunteers. A secondary objective was to assess the pharmacokinetics of multiple doses of oral (Z)-Endoxifen in the subjects.
Generally, healthy female volunteers aged ≥18 years and ≤65 years were enrolled. 24 participants were enrolled in 3 cohorts and will be administered study drug orally. Three dose levels of orally administered (Z)-Endoxifen were investigated in 3 cohorts. In each cohort participants were randomized to receive an oral (Z)-Endoxifen or placebo in a blinded fashion. Enteric-resistant capsules used in the study were designed as delayed release capsules to resist rupture for at least 30 minutes, but typically, for about 2 hours, under gastric conditions and then open fully in intestinal fluid (DRCaps; Capsugel, a Lonza Company, USA). Enteric-resistant (Swedish Orange size Zero (0); Capsugel, USA) DRCaps capsules manually filled with 1, 2 or 4 mg of (Z)-endoxifen neat in compliance with GMP requirements were used. Placebo capsules contained microcrystalline cellulose an inert common capsule and tablet excipient.
Each cohort enrolled 8 participants, with 6 participants receiving (Z)-Endoxifen 1 mg capsules orally at 1 mg (Cohort 1), 2 mg (Cohort 2) or 4 mg (Cohort 3) doses and 2 participants receiving matching placebo capsules. In Cohort 1 (Dose Level=1 mg) two participants (sentinels) were dosed 24 hours prior to the remaining participants. One sentinel was dosed with (Z)-Endoxifen and the other with placebo. The remaining six participants in Cohort 1 were dosed as no safety concerns were identified in the sentinel participants. The non-sentinel participants in Cohort 1 were admitted to the clinical research facility at least one day later than the sentinels. There were no sentinels in Cohorts 2 and 3.
Participant engagement in this study was for a period of 56 days. These included a 28 day screening period, and a 7 day post treatment period for Pharmacokinetic (PK) sampling. There were two confinement periods, one at the beginning and one at the end of the dosing periods. Participants were confined to the clinical facility on Days-1 through to Day 2 and Days 21 and 22. If participants were to experience any clinically significant adverse events during the study, they would have been required to remain in the clinical facility for further observation at the discretion of the Principal Investigator (PI).
Healthy female volunteers were screened within 28 days prior to commencement of dosing. Participants were admitted to the clinical facility on Day-1 for up to 3 days. The first dose of (Z)-Endoxifen or placebo capsules was administered on Day 1. Following completion of all safety assessments and sampling for PK analyses, participants were discharged from the clinical facility on Day 2. The first dose on Day 1 was followed by a 6-day treatment free period (Days 2-7). Each participant returned to the clinical facility for PK blood draws and safety assessments during the treatment free period on study Days 4 and 6. On Day 8 participants commenced daily administration of (Z)-Endoxifen capsules or placebo capsules for 14 consecutive days (Days 8-21). Participants were supplied with study drug capsules and asked to self administer daily. Participants visited the clinical facility on Days 11, 14 and 17, prior to dose administration, for PK blood draws and safety assessments. On the morning of Day 21 each participant returned to the clinical facility prior to dose administration and were confined to the facility until Day 22 to allow for the collection of PK blood draws and safety assessments. The Day 21 dose was the last administration of study drug. Participants were discharged from the clinical facility on Day 22 and returned for PK blood draws and safety assessments on study Days 24, 26, and 28. […]

[3] = cited from earlier work

Structure (SMILES): CC/C(=C(\c1ccc(O)cc1)c1ccc(OCCNC)cc1)c1ccccc1.Cl [(Z)-endoxifen HCl]
t90 ([1]; aqueous medium, 45° C.): 9 days | predicted t90 for 10% conversion to (E)-endoxifen ([1]; 25° C./60% RH): 53 months | predicted t90 for 10% conversion to (E)-endoxifen ([1]; 40° C./75% RH): 4.3 months

dose linearity β Estimate ([2]; AUC24 hr (log), Day 1): 0.873 | dose linearity β Estimate ([2]; AUC24 hr (log), Day 21): 1.008 | dose linearity β Estimate ([2]; Cmax (log), Day 1): 0.808 | dose linearity β Estimate ([2]; Cmax (log), Day 21): 1.055
Structure (SMILES): CC/C(=C(\c1ccc(O)cc1)c1ccc(OCCNC)cc1)c1ccccc1 [Endoxifen]

Structure (SMILES): CC/C(=C(\c1ccccc1)c1ccc(OCCN(C)C)cc1)c1ccccc1 [tamoxifen, (Z)-2-[4-(1,2-diphenyl-1-butenyl)phenoxy]-N,N-dimethylethanamine]
Terminal elimination half life ([3]; in vivo): 120 to 170 h | peak concentration time ([3]; post-dose): approximately 5 hours
